The record followed here is paper PMC10385865, “Synthesis and Anticancer Activity of Novel Dual Inhibitors of Human Protein Kinases CK2 and PIM-1” (Pharmaceutics, 2023).

Assay [1] concerns CCRF-CEM (acute lymphoblastic leukemia). In words: MTT-based viability assay, CCRF-CEM. The format is cell-based, human. As to conditions: for IC50: Homo sapiens, CCRF-CEM, 48 h, read-out: IC50 CCRF-CEM. As for the experimental part:
(§1) After incubation with the tested compounds, an MTT test was performed as described previously. Optical densities were measured at 570 nm using a BioTek microplate reader (BioTek Instruments, Inc., Winooski, VT, USA). All measurements were carried out in a minimum of three biological replicates.
(§2) . The IC50 values describing the half-maximal effective concentration of each tested compound were calculated and are summarized in Table 2. […].
In general terms: Tetrazolium assays rely on reduction of a dye to a coloured formazan, in cell work by metabolically active cells.

A further assay concerns MCF-7 (breast carcinoma). In words: MTT-based viability assay, MCF-7. The class given is cell-based, human. As to conditions: for IC50: Homo sapiens, read-out: IC50 MCF-7. As for the experimental part:
as §1, §2

In another assay the test system is K-562 cells. Nature of the assay: Cell cycle progression by flow cytometry (PI), K-562. The format is cell-based, human. As to conditions: for K-562 cells in S phase (maximum): K-562, 15 µM, 48 h; for cell cycle arrest (phase, in words): K-562, 48 h. As for the experimental part:
(§3) MCF-7, CCRF-CEM, and K-562 cells were cultured in 6-well plates and treated with the tested compounds for 48 h. After exposure to the compounds, the cells were collected and washed with cold PBS and fixed at −20 °C in 70% ethanol for at least 24 h. Subsequently, cells were washed in PBS and stained with 50 μg/mL PI (propidium iodide) and 100 μg/mL RNase solution in PBS supplemented with 0.1% v/v Triton X-100 for 30 min in the dark at RT. Cellular DNA content was determined by flow cytometry employing a BD FACSCanto II flow cytometer (BD Biosciences, San Jose, CA, USA). The obtained DNA histograms were analyzed using MacCycle software (Phoenix Flow Systems, San Diego, CA, USA) for evaluation of the distribution of the cells in different phases of the cell cycle.
(§4) Since CK2 controls cell cycle progression and, consequently, its inhibition can affect the distribution of cells in the individual phases of the cell cycle, we tested the cell cycle progression in CCRF-CEM, K-562, and MCF-7 cells after treatment with 4 and rac-6. Representative plots DNA histograms with the calculations of cell percentages in each phase of the cell cycle are depicted in Figure 7. […] Accumulation of cells in sub-G1 indicates DNA degradation, as often seen in apoptotic cells, confirming the results obtained with annexin V and PI staining.
(In general: Flow cytometry measures light scatter and fluorescence of single cells or particles in a stream.)

Assay [2] deals with MCF-7 cells. Nature of the assay: Cell cycle progression by flow cytometry (PI), MCF-7. The format is cell-based, human. As to conditions: MCF-7, 48 h. As for the experimental part:
as §3, §4

The test system of assay [3] is MCF-7 cells. Nature of the assay: Annexin V/propidium iodide apoptosis, flow cytometry, MCF-7. Conditions: for viability at 5 µM / viability at 10 µM: Homo sapiens, MCF7, 48 h, read-out: Viable; for Early apoptosis / Late apoptosis / Necrosis: mean±SD.
Experimental: (§5) MCF-7 cells were seeded in 6-well plates at 1.2 × 10^5 cells/well, whereas CCRF-CEM and K-562 cells were seeded in 24-well plates at a density of 2 × 10^5/mL. Cells were treated with the tested compounds used in 5 µM and 10 µM concentrations. Then, the plates were incubated for 48 h. After exposure to the examined compounds, the cells were collected and centrifugated at 200× g at 4 °C for 5 min, washed twice in cold phosphate-buffered saline (PBS), and subsequently suspended in binding buffer at 1 × 10^6 cells/mL. Subsequently, 100-μL aliquots of the cell suspension were labeled according to the instructions of the respective manufacturer’s kit. Briefly, annexin V-fluorescein isothiocyanate and propidium iodide (BD Biosciences, Pharmingen, San Diego, CA, USA) were added to the cell suspension, and the mixture was vortexed, then incubated for 15 min at RT in the dark. A cold binding buffer (400 μL) was then added, and the cells were vortexed again and kept on ice. Flow cytometric measurements were performed within 1 h after labeling. Viable, necrotic, early, and late apoptotic cells were detected by flow cytometry using a BD FACSCanto II flow cytometer and analyzed using BD FACSDiva operating software (BD Biosciences, San Jose, CA, USA).
For another assay, the system named is CCRF-CEM cells. Nature of the assay: Annexin V/propidium iodide apoptosis, flow cytometry, CCRF-CEM. As to conditions: 48 h; for Early apoptosis / Late apoptosis / Necrosis: mean±SD; for viability at 5 µM / viability at 10 µM: Homo sapiens, read-out: Viable.

Like-named read-outs stand apart in the source and are kept apart here.

Experimental for CCRF-CEM cells: as §5

Turning to `OC(CNc1nc2c(Br)c(Br)c(Br)c(Br)c2[nH]1)C(F)(F)F` (racemic) [rac-6, 1,1,1-Trifluoro-3-[(4,5,6,7-tetrabromo-1H-benzimidazol-2-yl)amino]propan-2-ol], the half-maximal inhibitory concentration (IC50) stood at 11.8 ± 0.4 µM in assay [1] (MTT) and 9.66 ± 0.31 µM with MCF-7 (breast carcinoma) (MCF7, MTT, 48 h). Besides, the “SI (selectivity index) CCRF-CEM” value in assay [1] (IC50 Vero/IC50 cancer cells) worked out at 1.72. In addition, the “SI (selectivity index) MCF-7” value in the assay with MCF-7 (breast carcinoma) (IC50 Vero/IC50 cancer cells) is on record as 2.11. For the same compound, in the assay with K-562 cells, the “K-562 cells in S phase (maximum)” value was determined as 56.1%. Also, the “cell cycle arrest (phase, in words)” value was “S-phase arrest” in the assay with K-562 cells and “G1-phase arrest” in the assay with MCF-7 cells [2]. For the same compound, the results for the viability at 5 µM with MCF-7 cells [3] and in the assay on CCRF-CEM cells were 79 ± 1.94% and 76 ± 3.75%, respectively. The viability at 10 µM in the assay on MCF-7 cells [3] was 69.1 ± 13.1%; in the assay on CCRF-CEM cells it was 48.6 ± 2.26%. The Early apoptosis was 1.18±1.08% in the assay on MCF-7 cells [3] (MCF-7, 5 µM, 48 h); 3.53±5.45% with MCF-7 cells [3] (MCF-7, 10 µM, 48 h); 2.75±0.07% in the assay with CCRF-CEM cells (5 µM); 2.30±0.42% in the assay on CCRF-CEM cells (10 µM). In addition, the Late apoptosis in the assay on MCF-7 cells [3] (MCF-7, 5 µM, 48 h) is on record as 10.96±1.63%; in the assay with MCF-7 cells [3] (MCF-7, 10 µM, 48 h) it was 19.05±7.40%; in the assay with CCRF-CEM cells (5 µM), 18.85±3.61%; in the assay with CCRF-CEM cells (10 µM) it was 44.05±4.03%. For the same compound, the Necrosis in the assay with MCF-7 cells [3] (MCF-7, 5 µM, 48 h) was 8.94±1.14%; in the assay on MCF-7 cells [3] (MCF-7, 10 µM, 48 h), 8.28±1.69%; with CCRF-CEM cells (5 µM), 2.45±0.07%; in the assay with CCRF-CEM cells (10 µM) it was 5.00±1.41%. Further, in the assay on MCF-7 cells [3] (MCF-7, 10 µM, 48 h, statistically significant result), the “induction of apoptosis (in words)” value is “induced apoptosis”. The “cells in early and late apoptosis” value in the assay on CCRF-CEM cells (10 µM) stood at 47%.

In the case of `CN(C)c1nc2c(Br)c(Br)c(Br)c(Br)c2[nH]1` [Compound 4, 4,5,6,7-Tetrabromo-N,N-dimethyl-1H-benzimidazol-2-amine, reference compound], the half-maximal inhibitory concentration (IC50) in assay [1] amounted to 18.9 ± 0.88 µM; in the assay with MCF-7 (breast carcinoma) (MCF7, 48 h), 14.7 ± 0.27 µM. For the same compound, in the assay with K-562 cells, the “K-562 cells in S phase (maximum)” value came to 57.7%. The “cell cycle arrest (phase, in words)” value in the assay on K-562 cells and with MCF-7 cells [2] was “S-phase arrest” in each case. Further, the viability at 5 µM in the assay on MCF-7 cells [3] is 79 ± 2.76%; in the assay with CCRF-CEM cells, 83.3 ± 0.57%. For the same compound, the viability at 10 µM in the assay with MCF-7 cells [3] was found to be 70.3 ± 3.36%; with CCRF-CEM cells, 80.35 ± 0.78%. Also, the Early apoptosis is given as 0.98±0.62% in the assay on MCF-7 cells [3] (MCF-7, 5 µM, 48 h); 1.80±1.31% in the assay with MCF-7 cells [3] (MCF-7, 10 µM, 48 h); 1.65±0.78% in the assay on CCRF-CEM cells (5 µM); 1.55±0.07% in the assay on CCRF-CEM cells (10 µM). The Late apoptosis was determined as 8.44±1.47% with MCF-7 cells [3] (MCF-7, 5 µM, 48 h); 15.94±3.58% with MCF-7 cells [3] (MCF-7, 10 µM, 48 h); 13.55±0.35% in the assay on CCRF-CEM cells (5 µM); 16.75±0.21% in the assay on CCRF-CEM cells (10 µM). Further, the Necrosis in the assay with MCF-7 cells [3] (MCF-7, 5 µM, 48 h) is on record as 11.62±2.01%; in the assay with MCF-7 cells [3] (MCF-7, 10 µM, 48 h), 11.96±2.46%; with CCRF-CEM cells (5 µM), 1.45±0.07%; in the assay on CCRF-CEM cells (10 µM) it was 1.35±0.49%.

A word on the IC50: it is the point on the concentration scale where inhibition reaches its midpoint.
